Reference: a melting point compilation (Tetko et al.; mined from patent text by program, amines drawn as free bases though some values may be those of a salt)

SMILES | melting point
CN(C)S(=O)(=O)c1cc2c(c(Cl)c1Cl)OC(C(=O)OCOC(=O)C(C)(C)C)C2 (stereo unspecified) | 113 to 114 °C
CSc1cnc2ccsc2c1O | 210 to 212 °C
CCCCCCCCCCCCCCCCC(OC)C(=O)OC (stereo unspecified) | 33 to 36 °C
Cc1nc(-c2ccc(Br)cc2)n(-c2ccc(S(N)(=O)=O)cn2)n1 | 221 to 222 °C
CC(=O)Nc1ncc2cc(-c3c(Cl)cccc3Cl)c(=O)n(C)c2n1 | 258 to 260 °C
COc1ccc(-c2cc(C=CC(=O)O)cs2)cc1C(C)(C)C | 197 to 198 °C
CCOC(=O)C(=O)c1cn(Cc2ccccc2)c2cc(-c3ccc(C(F)(F)F)cc3)ccc12 | 109 to 110 °C
COC(=O)c1sc(C(C)(C)C)cc1NC(=O)Nc1ccc(F)cc1 | 160 to 162 °C
Cc1ccc(C=CC(=O)NCCCCN2CCN(C(c3ccccc3)c3ccccc3)CC2)cn1 | 129 to 131 °C
Cc1cccc(CC(=O)O)c1OCCCc1cn(-c2ccc(Cl)cn2)nc1C(C)(C)C | 112 to 113 °C
COc1cc(C(O)CN)cc(OC)c1OC (stereo unspecified) | 141 °C
CC(C)(C)OC(=O)c1ncn2c1CN=C(c1ccccc1)c1cc(Br)ccc1-2 | 222 to 223 °C
C[C@@H]1CNC(=O)c2cc3cc(F)cc(Br)c3n21 | 188 °C
Nc1ncnc2c1ncn2Cc1oc2ccc(F)cc2c(=O)c1-c1ccccc1 | 207 to 209 °C
COC(=O)CC=C1CCC2C3CCC4=CC(=O)CCC4(C)C3CCC12C (stereo unspecified) | 149 to 151 °C
CCc1ccc(Nc2c(F)c(F)cc(F)c2F)c(CC(=O)N(C)C)c1 | 105 to 106 °C
CCOC(=O)C(=O)Nc1ccc(C(=O)NC2CCN(C3CCCCC3)C2)cc1 (stereo unspecified) | 138 to 141 °C
CC1OC(OC2C=C(Br)C(=O)C(C)O2)C=C(Br)C1=O (stereo unspecified) | 125 °C
CCc1c([N+](=O)[O-])c(C(N)=O)nn1CCOC | 140 °C
CN1C(=O)C(=O)NCC1(CCOC1CCCCO1)c1ccc(Cl)c(Cl)c1 (stereo unspecified) | 260 °C
COc1cccc(/C=C/c2cccc(C(=O)O)c2)c1 | 195 to 198 °C
CC(=O)Nc1c(C(=O)c2ccccc2)[nH]c2cccc(F)c12 | 131 to 133 °C
O=C1c2ccc([N+](=O)[O-])cc2C(=O)N1C1CCN(CCc2ccccc2)CC1 | 240 to 242 °C
CCOC(=O)c1cn(CCc2cccc(C(F)(F)F)c2)c2cc(C3CC3)nn2c1=O | 140 to 145 °C
NC(=O)N1CCN(c2nn(-c3ccccc3)c3ccccc23)CC1 | 151 to 153 °C
CC(C)(C)OC(=O)Nc1cc(CC#N)c(I)cc1[N+](=O)[O-] | 124 to 126 °C

SMILES | melting point
CN1CCc2c(Cl)ccc3c4c(n(c23)CC1)CCCC4 | 128 to 130 °C
CCOC(=O)c1nnc2ccc(NC(=O)OCC(Cl)(Cl)Cl)cc2c1O | 251 to 253 °C
CC1(C)CC(=C(c2ccc(O)cc2)c2ccc(C#CCO)cc2)CC(C)(C)C1 | 141 to 142 °C
COC(=O)c1ccc(C2=NOC(c3cc(Cl)cc(C(F)(F)F)c3)(C(F)(F)F)C2)c2ccccc12 (stereo unspecified) | 112 °C
COc1ccc(-c2ccc3cnc(Nc4cc5c(cc4F)CCC(=O)N5)nn23)cn1 | 295 °C
CC(NC(=O)C(N)CC(=O)O)C(=O)NC1C(C)(C)SC1(C)C (stereo unspecified) | 57.2 °C
CC(=O)Nc1cccc(-c2cc3nc(-c4cccnc4N)n(-c4cccc(-c5cc(C)nc6ccc(NC(C)=O)cc56)c4)c3nc2-c2cccnc2)c1 | 176 to 178 °C
O=C1N(C(c2ccccc2)c2ccccc2)c2ccccc2C1(O)c1cc2c(cc1O)OCCC2 (stereo unspecified) | 204 to 206 °C
COC(=O)C(O)=Cc1ncc(Cc2ccc(F)cc2)cn1 | 132 to 134 °C
COCCOc1ccc(/C=C/C(=O)O)c(OCC2CCCO2)c1 (stereo unspecified) | 106 to 108 °C
CC(c1ccc2c(c1)Sc1ccccc1CC2)N(O)C(N)=O (stereo unspecified) | 166 to 168 °C
N#Cc1cnc(Nc2ccc(OCCn3nccn3)cc2)nc1-c1ccccc1 | 156 °C
CC(=O)Nc1cccc(-c2nc3ncccc3[nH]2)c1 | > 250 °C
Cc1cc2c(s1)CCCNC2=O | 119 to 120 °C
O=C1N=C(N2CCOCC2)SC1c1cncc(-c2cc3c(c(C45CC6CC(CC(C6)C4)C5)c2)OCO3)c1 (stereo unspecified) | 255 to 258 °C
O=C1NC(Cc2ccc(OCc3ccccc3)cn2)C(=O)NC1Cc1ccc(F)cc1 (stereo unspecified) | 220 to 222 °C
CC(=O)OC1CCC(n2cnc3cc(Cl)c(Cl)cc32)C1OC(C)=O (stereo unspecified) | 95 to 97 °C
Cn1c(=O)oc2cc3c(cc21)OCC31C(=O)N(C(c2ccccc2)c2ccccc2)c2ccccc21 (stereo unspecified) | 228 to 229 °C
CCCCCCCCCCCCCCCC(=O)OCC1OC(n2cc(C)c(=O)[nH]c2=O)CC1F (stereo unspecified) | 65 to 66 °C
COC(=O)c1ccc2c(c1)nc(C)n2N | 220 to 222 °C
Nc1ccc(C(=O)c2nccs2)cc1[N+](=O)[O-] | 179 to 181 °C
CN1C=C(C(=O)Nc2ccccc2)C(C(F)(F)F)N1CO (stereo unspecified) | 191 °C
CC(=O)Nc1ccc(S(=O)(=O)NCCCn2ccnc2)cc1 | 178 to 180 °C
CN(C(=O)OC(C)(C)C)C1C2CCC1CN(CC(O)COc1ccc(C#N)cc1)C2 (stereo unspecified) | 109 to 112 °C
Cc1cccc2c1C[C@H](C(=O)O)[C@@H]2C (relative stereo) | 132 to 135 °C
CCOP(=O)(OCC)c1c(-c2c(OC)ccc3ccccc23)cc2c(c1C)COC2 | 68 to 69.9 °C

SMILES | melting point
O=C(NC1CCCC1)c1cc2ccncc2[nH]1 | 220 to 224 °C
COc1ccc(N2CC(=O)NC(=O)N2)cc1C | 69 to 71 °C
CCC(CC)C(c1ccnn1-c1ccccc1)N(C)S(=O)(=O)c1cc(Cl)c(Cl)s1 (stereo unspecified) | 99 to 100 °C
COc1ncccc1C(=O)N(C(C)C)C(C)C | 109 °C
CC(C)CC(CO)NC(=O)OCC1c2ccccc2-c2ccccc21 (stereo unspecified) | 131 to 133 °C
Cc1ncc([N+](=O)[O-])n1CCN=[N+]=[N-] | 51 to 51.5 °C
CC(C)(C)c1nn(C(C)(C)C)c(N)c1C#N | 78 to 80 °C
CCOC(=O)C1=C(C)NC(CN2C(=O)c3ccccc3C2=O)=C(C(=O)OCC)C1c1ccc(F)cc1 (stereo unspecified) | 144 to 145 °C
CC(=O)CC(=O)c1cccc2[nH]ccc12 | 104 to 105 °C
CC#Cc1ccc(NC(=O)c2cccnc2NCc2ccc(=O)[nH]c2)cc1C(F)(F)F | 211 to 218 °C
CCOC(=O)C1=C2COC=CN2C(C)=C(C(=O)OC)C1c1ccccc1Cl (stereo unspecified) | 126 to 127 °C
O=C(NC1N=C(c2ccccc2F)c2ccccc2NC1=O)c1ccc(Cl)cc1 (racemic) | 258 to 259 °C
CCCCC1=NC(NC(=O)C2(NC(=O)CCC(C)C)CCCC2)C(=O)N(Cc2ccccn2)c2ccccc21 (stereo unspecified) | 63 to 67 °C
CCCNc1nc(-c2ccccc2)c(CCC(=O)OC)s1 | 67 to 68 °C
CC(C)n1cnc2c(NCc3ccccc3)nc(NCCCO)nc21 | 98 to 101 °C
COc1ccc(N2CCN(c3c(C)c(C)c4c(c3C)C(O)(c3ccc(N(C)C)cc3)C(C)(C)O4)CC2)cc1 (stereo unspecified) | 144 to 146 °C
Cc1ccc([N+](=O)[O-])c(C#N)c1C | 107 to 108 °C
CCNC1N=CN(c2ccccc2C)C(=O)N1 (stereo unspecified) | 208 to 210 °C
CC(C)NC(=O)c1c(NC(=O)c2cc(C(F)(F)F)nn2-c2ncccc2Cl)ccc2cn[nH]c12 | 203 to 205 °C
COC(=O)[C@@H]1CCCN1C(=O)c1cccc(O)c1[N+](=O)[O-] | 114 to 116 °C
COC(=O)c1scc(-c2ccccc2)c1S(=O)(=O)NC(=O)Nc1nc(OC)cc(OC)n1 | 225 to 227 °C
CN=CN(C)c1nc(-c2cc(Cl)nc(Cl)c2)cs1 | 145 °C
Cc1ccc2c(Cl)cc(S(=O)(=O)NCCc3ccc(N)cc3)c(O)c2n1 | 249 to 253 °C
Cn1c(COc2ccc(CC3SC(=O)NC3=O)cc2)nc2ccc(O)nc21 (stereo unspecified) | 240 to 242 °C
COc1ccc(Cn2cc(OCc3ccccc3)c(=O)cc2C(=O)NCCNCc2ccccc2)cc1 | 112 °C
CCOC(=O)c1c2c(nc3ccccc13)CCN(C(=O)OCC)CC2 | 94 °C

SMILES | melting point
COc1cc(Nc2nc3ccnc(-c4ccc(N)cc4)c3o2)cc(OC)c1OC | 148 to 151 °C
O=S(=O)(Cc1ccccc1)c1nnnn1Cc1ccccc1 | 94 to 96 °C
CCCOCCOc1cccc2oc(C(=O)N3CCN(C)CC3)cc(=O)c12 | 78 to 80 °C
O=C(O)CCc1c(Sc2ccccc2)c2cc(F)ccc2n1Cc1ccc(Cl)cc1 | 138 to 139 °C
CCCCc1ncc(/C(C)=C(\Cc2ccccc2)C(=O)O)n1Cc1ccccc1Cl | 206 to 207 °C
CN(C)C(=O)NNCC1CC2c3cccc4[nH]cc(c34)CC2N(C)C1 (stereo unspecified) | 205 to 206 °C
Cc1nc(-c2cccc([N+](=O)[O-])c2)cs1 | 87 to 88 °C
O=S(c1ccccc1-c1ccccc1)C(F)(F)F (stereo unspecified) | 57 to 58 °C
COc1ccc(/C=C(\C#N)c2ccccc2Cl)cc1OC1CCCC1 | 94 to 95 °C
CC(=O)c1ccc(-c2cccc(-c3nc(C(C)C)[nH]c3-c3cccc(C)n3)c2)cc1 | 84 to 87 °C
COc1ccc(C(=O)CBr)c2c1OCCO2 | 67 °C
CN(C)C(=O)Nc1ccc(OCc2nc(Cl)ccc2Cl)cc1 | 162 °C
Cc1ccc(-c2nnc(N3CCCCC3)nc2-c2ccc(C)cc2)cc1 | 141 to 143 °C
Cc1cccc(C(=O)c2[nH]c3cc(Cl)ccc3c2NC(N)=O)c1 | > 280 °C
Nc1cc(=O)n(Cc2ccc(Br)c(Br)c2)[nH]1 | 182 °C
CCOC(=O)c1ncc2[nH]c3c([N+](=O)[O-])cccc3c2n1 | 318 to 325 °C
COc1ccc(OC)c2nccnc12 | 145 to 150 °C
COc1ccc(CNC(=O)C(OC)OC)cc1OC | 60 °C
Nc1cc(O)nc(SCc2c(F)cccc2F)n1 | 245 to 246 °C
O=S(=O)(F)c1ccccc1S(=O)(=O)F | 130 to 131 °C
Cc1cccc(CCOc2nc(N)c3ncn(C4OC(CO)C(O)C4O)c3n2)c1 (stereo unspecified) | 102 to 108 °C
CC(C)(C)c1ccc(-c2cc(Oc3ccc4[nH]ccc4c3)ncn2)cc1 | 143 to 145 °C
COc1cccc(Sc2c(O)c3c(Cl)cc(Cl)cc3[nH]c2=O)c1 | 269 to 270 °C
